Our source for the IC50 and MIC values is ChEMBL document CHEMBL1148975, “Ancistrobenomine a, the first naphthylisoquinoline oxygenated at Me-3, and related 5,1'-coupled alkaloids, from the "new" plant species ancistrocladusbenomensis” (J Nat Prod, 2004).

In assay [1] the test system is Trypanosoma brucei rhodesiense. Briefly: Antitrypanosomal activity against Trypanosoma brucei rhodesiense. In kind it is functional, organism-based.
Assay [2] has as its system Plasmodium falciparum. Description: Antiplasmodial activity against Plasmodium falciparum K1. In kind it is functional, organism-based.
For assay [3], the system named is L6. Briefly: Cytotoxicity against rat L6 cells. Format: cell-based.
Assay [4] has as its system Trypanosoma cruzi. Description: Antitrypanosomal activity against Trypanosoma cruzi. In kind it is functional, organism-based.
In assay [5] the test system is Leishmania donovani. Briefly: Antileishmanial activity against Leishmania donovani. Format: functional, organism-based.

The structures appear in SMILES notation. Converted amounts (≈) assume the structure as drawn.

For orientation: IC50 means the concentration at which inhibition is half-maximal. In the case of `Nc1nc(N)nc(Nc2ccc([As]3SCC(CO)S3)cc2)n1` (stereo unspecified) [MELARSOPROL], the midpoint of inhibition in assay [1], the IC50, lay at 0.00095 mg/L.

On to `COc1cccc2c(-c3c(O)cc(OC)c4c(C)nc(CO)cc34)c(C)cc(O)c12` [6-O-DEMETHYLANCISTROBENOMINE A], for which the IC50 in assay [2] is 2.18 mg/L (≈ 5.38 µM); in assay [4], 23.4 mg/L (≈ 57.7 µM); in assay [1], 14.7 mg/L (≈ 36.3 µM); in assay [5] it was greater than 30 mg/L. This compound displayed an MIC in assay [3] of 59.9 mg/L (≈ 148 µM).

Take `COc1cc(O)c(-c2c(C)cc(OC)c3c(O)cccc23)c2c1[C@@H](C)N(C)[C@@H](C)C2`: the IC50 was found to be 0.51 mg/L (≈ 1.25 µM) in assay [2], 36.4 mg/L (≈ 89.3 µM) in assay [4], 2.2 mg/L (≈ 5.4 µM) in assay [1] and 18.8 mg/L (≈ 46.1 µM) in assay [5]. This compound gave an MIC in assay [3] of 15.5 mg/L (≈ 38 µM).

With `COc1cc(OC)c2c(C)nc(CO)cc2c1-c1c(C)cc(O)c2c(OC)cccc12` [ANCISTROBENOMINE A], the half-maximal inhibitory concentration (IC50) was 0.76 mg/L (≈ 1.81 µM) in assay [2], 4.8 mg/L (≈ 11.4 µM) in assay [4], 1.3 mg/L (≈ 3.1 µM) in assay [1] and greater than 10 mg/L in assay [5]. In assay [3], this compound gave an MIC of 12.3 mg/L (≈ 29.3 µM).
